Results from paper PMC10243242 (European Journal of Clinical Pharmacology, 2023).
Several values for one entry are separate records, joined by “and”; a condition that tells them apart may be missing. Identical values can stand only once. Like-named read-outs stand apart in the source and are kept apart here. Marks after values point to notes of the source that are not given here.

Experiments:
[1] = Clinical drug-drug interaction study: plasma pharmacokinetics of dextromethorphan and dextrorphan with and without emvododstat; assay type: in vivo, human; settings: for CL/F: dextromethorphan; for Tmax: median (range)
Method: (§1) On day 1, 18 healthy subjects (ages ≥ 18 and ≤ 65 years) received a single oral dose of 30 mg (capsule) dextromethorphan followed by a 4-day washout period. On day 5, subjects received a single oral dose of 250 mg emvododstat with food. Two hours later, subjects were administered a single oral dose of 30 mg modified-release dextromethorphan.
Blood samples (3 mL) for dextromethorphan and dextrorphan assessments were collected in K2EDTA vacutainers on day 1 (dextromethorphan alone) and on day 5 (dextromethorphan in combination with emvododstat) at the following timepoints: 0- (predose), 0.5-, 1-, 2-, 3-, 4-, 5-, 6-, 8-, 12-, 24-, and 48-h post dextromethorphan dose. Within 120 min of collection of blood samples, plasma was harvested by centrifuging blood samples at 2000 ± 20 g for 10 min at 4 °C. Upon harvesting, plasma was transferred to 2-mL polypropylene tubes and immediately stored at – 20 ± 5 °C until analysis.
Concentrations of dextromethorphan and dextrorphan in human plasma samples were determined using high-performance liquid chromatography with tandem mass […] (LC-MS/MS) detection. The bioanalytical method was validated, and its performance during bioanalysis was within the limits specified in current regulatory guidance over a calibration range of 50 to 50,000 pg/mL. Validation included testing such as linearity, sensitivity, specificity, selectivity, accuracy and precision, dilution effects, recovery, ruggedness, and stability.
Briefly, dextromethorphan and dextrorphan were extracted from 0.2 mL of human K2EDTA plasma using an automated liquid–liquid extraction followed by detection using LC-MS/MS. Stable isotope labeled internal standard (dextromethorphan-d3 and dextrorphan-d3) was used to track the analytes potential variability. To 0.2 mL of plasma, the internal standard (IS) working solution diluted in an ammonium formate/ammonium hydroxide buffer solution was added. The analytes and ISs were extracted using methyl-tert-butyl-ether (MTBE). A portion of the upper layer was transferred to a 96 deep well collection plate using an automated liquid handling system. After evaporation to dryness, the dry residue was reconstituted with the mobile phase and injected on a Sciex API 4000. The chromatographic separation was performed in isocratic mode using BetaSil CN column (dimensions 50 × 4.6 mm, 5 μm) and methanol/Milli-Q type water with ammonium formate and formic acid as mobile phase. The mass spectrometer detection was performed in positive ion mode with multiple reaction monitoring (MRM) transitions of 272.2 → 215.3, 275.2 → 215.3, 258.2 → 201.2, and 261.2 → 157.2 for dextromethorphan, dextromethorphan-d3, dextrorphan, and dextrorphan-d3, respectively.
Dextromethorphan and dextrorphan concentrations in study plasma samples were determined using duplicate plasma calibration curves of dextromethorphan and dextrorphan in each analytical batch. Additionally, duplicate quality control plasma samples spiked with dextromethorphan and dextrorphan at four concentration levels (low, 150 pg/mL; intermediate, 2000 pg/mL; medium, 25,000 pg/mL; and high, […]) were included in each analytical batch to assess the assay performance of the bioanalytical method. The accuracy (%bias) of QC samples in all analytical batches was within ± 4.6%, and precision (%coefficient of variation) was less than 6.2% for dextromethorphan and dextrorphan.
Non-compartmental pharmacokinetics were performed using Phoenix® WinNonlin (Version 8.1, Certara, Princeton, NJ, USA). Primary parameters consisted of AUC0-last, AUC0-inf, and Cmax. Secondary parameters included T1/2, Tmax, and CL/F (drug clearance). Bioavailability assessments were calculated using SAS software (Version 9.4, SAS, Cary, NC, USA) in accordance with current regulatory guidelines. A mixed linear model was fitted on log-transformed AUC0-inf, AUC0-t, and Cmax for both parent and metabolite. […]

[2] = Safety and tolerability in healthy subjects; assay type: in vivo, human; settings: single doses of dextromethorphan 30 mg with and without emvododstat 250 mg, 18 healthy subjects
Source text: The safety and tolerability of dextromethorphan alone and with emvododstat were monitored.

[3] = system: SARS-CoV-2; set-up: method as in PMID 33249060; settings: SARS-CoV-2019, cell culture, cited from earlier work
[4] = biological target: T1, CYP2D6 (Homo sapiens, UniProt P10635); set-up: method as in PMID 34846990; settings: cited from earlier work
T1 sequence (P10635 whole entry): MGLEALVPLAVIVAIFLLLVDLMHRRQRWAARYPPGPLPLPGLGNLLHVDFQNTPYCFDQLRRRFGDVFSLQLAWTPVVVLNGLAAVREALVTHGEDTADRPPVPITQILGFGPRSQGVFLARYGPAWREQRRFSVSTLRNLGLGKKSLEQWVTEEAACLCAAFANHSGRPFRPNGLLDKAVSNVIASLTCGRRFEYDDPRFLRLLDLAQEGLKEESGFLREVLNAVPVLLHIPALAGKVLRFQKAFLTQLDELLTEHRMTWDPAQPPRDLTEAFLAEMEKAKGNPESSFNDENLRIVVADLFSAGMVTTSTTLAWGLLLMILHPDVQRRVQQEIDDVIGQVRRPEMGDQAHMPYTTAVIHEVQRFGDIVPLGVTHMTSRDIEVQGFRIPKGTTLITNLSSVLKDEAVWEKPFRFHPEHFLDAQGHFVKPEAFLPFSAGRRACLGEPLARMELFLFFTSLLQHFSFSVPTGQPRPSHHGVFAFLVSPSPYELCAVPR

[5] = system: human bone marrow progenitor cells; settings: cultured human bone marrow progenitor cells; cited from earlier work
[6] = rats dosed for up to 28 days; cited from earlier work
[7] = dogs dosed for up to 28 days; cited from earlier work
[8] = humans; cited from earlier work
[9] = biological target: T1, CYP2D6; experiment: Clinical drug-drug interaction study: in vivo CYP2D6 inhibition with dextromethorphan as probe substrate; set-up: On day 1, 18 healthy subjects (ages ≥ 18 and ≤ 65 years) received a single oral dose of 30 mg (capsule) dextromethorphan; from tissue; host or cells: Healthy human subjects in vivo; The enzyme is their own; settings: single oral dose 250 mg emvododstat, dextromethorphan as sensitive probe substrate, healthy subjects
Method: as §1
Non-compartmental pharmacokinetics were performed using Phoenix® WinNonlin (Version 8.1, Certara, Princeton, NJ, USA). Primary parameters consisted of AUC0-last, AUC0-inf, and Cmax. Secondary parameters included T1/2, Tmax, and CL/F (drug clearance). Bioavailability assessments were calculated using SAS software (Version 9.4, SAS, Cary, NC, USA) in accordance with current regulatory guidelines. A mixed linear model was fitted on log-transformed AUC0-inf, AUC0-t, and Cmax for both parent and metabolite. The model included terms for treatment (combined emvododstat + dextromethorphan as test treatment versus dextromethorphan as reference treatment) and subject as a random factor. LSM (geometric least squares mean) for the treatment ratio and 90% confidence intervals (90% CI) were estimated from the model.

[10] = dextromethorphan with emvododstat vs alone
[11] = dextrorphan in plasma after 30 mg dextromethorphan alone, geometric mean (%CV)
[12] = dextrorphan in plasma after 30 mg dextromethorphan with 250 mg emvododstat, geometric mean (%CV)

For `COc1ccc2c(c1)[C@]13CCCC[C@@H]1[C@H](C2)N(C)CC3` [Dextromethorphan, dextromethorphan, reference compound], the T1/2 ([1]; dextromethorphan in plasma, 30 mg dextromethorphan with 250 mg emvododstat (day 5), geometric mean (%CV), n = 16) was 41.4^b (39.2) h, the T1/2 ([1]; dextromethorphan in plasma, 30 mg oral dextromethorphan alone (day 1), geometric mean (%CV)) was 9.15 (25.2) h and the “Increase in T1/2” value [1, 10] was 32 h. For the same compound, the “Reduction in clearance (CL/F)” value [1, 10] was 94%, the CL/F ([1]; 30 mg dextromethorphan with 250 mg emvododstat (day 5), geometric mean (%CV), n = 16) was 81.5^b (117.0) L/h and the CL/F ([1]; 30 mg oral dextromethorphan alone (day 1), geometric mean (%CV)) was 1367 (176.7) L/h. It also gave an AUC(0-t) ([1]; human, oral, dextromethorphan in plasma, 30 mg dextromethorphan with 250 mg emvododstat (day 5), geometric mean (%CV)) of 157 ng·h/mL, an AUC(0-inf) ([1]; human, oral, dextromethorphan in plasma, 30 mg dextromethorphan with 250 mg emvododstat (day 5), geometric mean (%CV), n = 16, read-out: AUC0-inf) of 362 ng·h/mL and a Tmax ([1]; human, oral, dextromethorphan in plasma, 30 mg dextromethorphan with 250 mg emvododstat (day 5), read-out: Tmax) of 4 h. The half-life ([1]; human, plasma, oral, dextromethorphan in plasma, 30 mg dextromethorphan with 250 mg emvododstat (day 5), geometric mean (%CV), n = 16, read-out: T1/2 (converted)) was 41 h, the half-life ([1]; human, plasma, po, 30 mg, dextromethorphan in plasma, 30 mg oral dextromethorphan alone (day 1), geometric mean (%CV), read-out: T1/2 (converted)) was 9 h and the Cmax ([1]; human, dextromethorphan in plasma, 30 mg dextromethorphan 2 h after 250 mg oral emvododstat (day 5), geometric mean (%CV)) was 5.85 ng/mL. For the same compound, the AUC(0-t) ([1]; human, dextromethorphan in plasma, 30 mg oral dextromethorphan alone (day 1), geometric mean (%CV)) was 18.8 ng·h/mL, the AUC(0-inf) ([1]; human, dextromethorphan in plasma, 30 mg oral dextromethorphan alone (day 1), geometric mean (%CV), read-out: AUC0-inf) was 21.6 ng·h/mL and the Cmax ([1]; human, dextromethorphan in plasma, 30 mg oral dextromethorphan alone (day 1), healthy subjects, geometric mean (%CV)) was 2.01 ng/mL. For the same compound, the Tmax ([1]; human, dextromethorphan in plasma, 30 mg oral dextromethorphan alone (day 1), read-out: Tmax) was 4 h and the Drug-related adverse effects [2] was “mild and reversible”.

In the case of `CN1CC[C@@]23CCCC[C@@H]2[C@@H]1Cc1ccc(O)cc13` [Dextrorphan, dextrorphan], the “Geometric mean metabolite/parent ratio for AUC (dextrorphan/dextromethorphan)” value ([1]; dextromethorphan in the presence of emvododstat) is reported as 0.182 and 0.18, the AUC0-last [1, 11] is reported as 31,852 (45.7) h·pg/mL and the AUC(0-inf) [1, 11] is reported as 33,194 (43.8) h·pg/mL. For the same compound, the AUC0-last [1, 12] was 29,382 (40.7) h·pg/mL, the AUC(0-inf) [1, 12] was 30,875 (38.8) h·pg/mL and the Tmax ([1]; dextrorphan in plasma after 30 mg dextromethorphan with 250 mg emvododstat) was 4 (1–4) h. For the same compound, the “Effect of CYP2D6 inhibition on peak exposure (Cmax)” value ([1]; dextrorphan, Cmax LSM ratio just inside, 90% CIs outside of the no effect range 0.80 to 1.25) was “slightly affected”, the Cmax ([1]; human, oral, dextrorphan in plasma after 30 mg dextromethorphan alone, geometric mean (%CV)) was 5 ng/mL and the Cmax ([1]; human, oral, dextrorphan in plasma after 30 mg dextromethorphan with 250 mg emvododstat, geometric mean (%CV)) was 4.05 ng/mL. It also gave a half-life ([1]; human, plasma, oral, 30 mg, dextrorphan in plasma after 30 mg dextromethorphan alone, geometric mean (%CV), read-out: T1/2 (converted)) of 5.86 h, a half-life ([1]; human, plasma, oral, dextrorphan in plasma after 30 mg dextromethorphan with 250 mg emvododstat, geometric mean (%CV), read-out: T1/2 (converted)) of 8.41 h and a half-life ([1]; human, plasma, oral, dextrorphan, alone and in combination with emvododstat, read-out: Effective T1/2) of 6 to 8 h. The AUC(0-t) ([1]; human, plasma, oral, dextrorphan, 30 mg dextromethorphan capsules alone) was 31.9 ng·h/mL, the AUC(0-inf) ([1]; human, plasma, oral, dextrorphan, 30 mg dextromethorphan capsules alone, read-out: AUC0-inf) was 33.2 ng·h/mL and the AUC(0-t) ([1]; human, plasma, oral, dextrorphan, dextromethorphan given concurrently with emvododstat) was 29.4 ng·h/mL. For the same compound, the AUC(0-inf) ([1]; human, plasma, oral, dextrorphan, dextromethorphan given concurrently with emvododstat, read-out: AUC0-inf) was 30.9 ng·h/mL and the “Geometric mean metabolite/parent ratio for AUC (dextrorphan/dextromethorphan)” value ([1]; prior to administration of emvododstat) was 1.69.

For `COc1ccc(C2c3[nH]c4ccc(Cl)cc4c3CCN2C(=O)Oc2ccc(Cl)cc2)cc1` (stereo not shown) [Emvododstat, 4-chlorophenyl 6-chloro-1-[4-methoxyphenyl]-1,3,4,9-tetrahydro-2H-pyrido[3,4-b]indole-2-carboxylate], the Drug-related adverse effects [2] is given as “mild and reversible”, the EC50 ([3]; read-out: EC50, decreased capsid protein) is given as 1.96 nM and the EC50 ([3]; read-out: EC50, decreased viral titer) is given as 2.6 nM. The EC90 ([3]; read-out: EC90, decreased viral titer) was 53 nM, the Ki ([4]; human liver microsomes, non-competitive inhibitor, read-out: Inhibition constant (Ki) for CYP2D6) was 38 nM and 37.7 nM and the IC50 ([4]; in vitro) was 17 nM. The “Effect on viability or proliferation” value [5] was “does not impair”, the Myelotoxicity [6] was “no evidence of myelotoxicity” and the Myelotoxicity [7] was “no evidence of myelotoxicity”. The Myelotoxicity [8] was “no evidence of myelotoxicity” and the “In vivo CYP2D6 inhibitor classification” value [9] was “strong inhibitor of CYP2D6 activity”.

In the case of `O=C(Oc1ccc(Cl)cc1)N1CCc2c([nH]c3ccc(Cl)cc23)C1c1ccc(O)cc1` (stereo not shown) [O-desmethyl emvododstat], the “Inhibition of CYP2D6 activity (in words)” value ([4]; in vitro, compared with emvododstat) is listed as “to a lesser extent”.
